Results as given in patent US20170165247A1, “CRYSTALLINE COMPOUNDS OF DABIGATRAN ETEXILATE” (OLON S.p.A., priority 2014, published 2017).

Experiments:
[1] = Kinetic dissolution of tablet in phosphate buffer pH 4.5; assay type: physicochemical; details: for Average Conc.: tablet dissolution
Method: Kinetic Dissolution Experimental Conditions for Tablet Dissolution Dissolution Medium: […] Temperature: 37±0.5° C. Volume: 80 mL Time: 2 hrs Sample: Tablet (weight 200 mg) Stirring: Paddle 100 rpm Sampling time: 5 min, 15 min, 25 min, 35 min, 45 min, 60 min and 120 min. Repetitions: 2 for each experiment At the time fixed, withdraw 3 mL from each vessel. Reinstate the withdrawn volume. Filter each solution with 0.20 μm filter, discarding the first 1 mL. […] Each withdrawal was analyzed without further dilution. The sample was analyzed using the chromatographic conditions reported herein.

[2] = Thermodynamic solubility test in buffer solution (HPLC); assay type: physicochemical; details: buffer pH 4.5, 37° C., 24 hours
Method: The solubility tests were performed in a buffer solution at ph 4.5 and compared with the solubility data of dabigatran etexilate mesylate (commercial form).
Thermodynamic Solubility Tests
The sample (approx. 50 mg) was weighted in a vial and left under magnetic stirring (approx. 300 rpm) in approx. 2 mL of buffer solution at 37° C. for 24 hours. The experiments were carried out at pH 4.5 and pH 6.8. The suspensions were filtered with 0.45 μm filter and analyzed by HPLC method previously reported. From the obtained area an opportune dilution of the sample was performed to obtain a value consistent with the Calibration Curve. Every diluted sample was analyzed by HPLC and the results were interpolated by the calibration curve.
Each experiment was replicated twice.

| Average Conc. ([1]; pH 4.5, time 5 min) | Average Conc. ([1]; pH 4.5, time 15 min) | Average Conc. ([1]; pH 4.5, time 25 min) | Average Conc. ([1]; pH 4.5, time 35 min) | Average Conc. ([1]; pH 4.5, time 45 min) | Average Conc. ([1]; pH 4.5, time 60 min) | Average Conc. ([1]; pH 4.5, time 120 min) | dissolution rate compared with the mesylate salt (in words) ([1]; kinetic dissolution, phosphate buffer pH 4.5, 37° C.) | dissolution rate, times higher than the mesylate derivative ([1]; tablet, phosphate buffer pH 4.5, 37° C., paddle 100 rpm, compared with mesylate) | Compound | Average Conc. [2] |
| --- | --- | --- | --- | --- | --- | --- | --- | --- | --- | --- |
| 8.76 | 11.06 | 12.26 | 13.74 | 15.52 | 17.21 | 28.89 |  |  | CCCCCCOC(=O)N=C(N)c1ccc(NCc2nc3cc(C(=O)N(CCC(=O)OCC)c4ccccn4)ccc3n2C)cc1.O=C(O)c1cc(=O)[nH]c(=O)[nH]1 [Dabigatran/orotate 1/1] |  |
| 6.86 | 9.09 | 11.40 | 13.28 | 15.96 | 18.55 | 26.44 |  |  | CCCCCCOC(=O)NC(=N)c1ccc(NCc2nc3cc(C(=O)N(CCC(=O)OCC)c4ccccn4)ccc3n2C)cc1.CS(=O)(=O)O [Dabigatran/mesylate 1/1] |  |
| 10.01 | 28.10 | 44.94 | 62.45 | 75.18 | 90.21 | 106.50 |  |  | CCCCCCOC(=O)N=C(N)c1ccc(NCc2nc3cc(C(=O)N(CCC(=O)OCC)c4ccccn4)ccc3n2C)cc1.O=C(O)c1cc(O)c(O)c(O)c1 [Dabigatran/gallate 1/1] |  |

Second part, the compound before the results:

| Compound | Average Conc. ([1]; pH 4.5, time 5 min) | Average Conc. ([1]; pH 4.5, time 15 min) | Average Conc. ([1]; pH 4.5, time 25 min) | Average Conc. ([1]; pH 4.5, time 35 min) | Average Conc. ([1]; pH 4.5, time 45 min) | Average Conc. ([1]; pH 4.5, time 60 min) | Average Conc. ([1]; pH 4.5, time 120 min) | dissolution rate compared with the mesylate salt (in words) ([1]; kinetic dissolution, phosphate buffer pH 4.5, 37° C.) | dissolution rate, times higher than the mesylate derivative ([1]; tablet, phosphate buffer pH 4.5, 37° C., paddle 100 rpm, compared with mesylate) | Average Conc. [2] |
| --- | --- | --- | --- | --- | --- | --- | --- | --- | --- | --- |
| Gallate |  |  |  |  |  |  |  |  |  | 0.40 µg/mL |
| Dabigatran Etexilate Orotate Anhydrous Form a (Dabigatran/Orotic Acid 1/1 Mol/Mole) |  |  |  |  |  |  |  | comparable | more than 8.7 times |  |
